Assay [1] concerns the target T1, GSPT1 ubiquitylation by CRBN (Homo sapiens, UniProt P15170+Q96SW2). Put plainly: split-CAT selective growth assay, GSPT1 as ubiquitylation target of CRBN. Also noted: expressed in transfected cells; host or cells: E. coli. Format: cell-based. As to conditions: for growth of E. coli that express GSPT1 (ubiquitylation dependent growth, OD600): split-CAT system, Cereblon-E2 (Ubc4) fusion, LB with chloramphenicol, 96 and 384 well plates. As to the method:
(§1) Activity assays with split-CAT system: Vectors containing the split-CAT ubiquitylation system were co-transformed into E. coli and grew in the presence of the relevant antibiotics (e.g. kanamycin and streptomycin). Overnight culture was harvested and the media was replaced with fresh LB containing 8 μg/ml chloramphenicol. The culture was diluted to O.D.600=0.2 and dispended to a 96 or 384 well plate supplemented with potential small molecule drugs or DMSO only. The plate was placed in a shaker/incubator/reader and OD600 was continuously monitored during the growth.
(§2) This procedure was used to read the ubiquitylation dependent growth of IKZF1, IKZF3, CK1a and GSPT1.
(§3) In a first experiment, IKZF1 (Q13422) and GSPT1 (P15170) were analyzed as potential ubiquitylation targets. These targets were coexpressed with C-CAT-Ub and E1 and the Cereblon-E2 (Ubc4) fusion. […] These assays were performed in 96 and 384 well plates.
In a third experiment, GSPT1 was analyzed as a potential ubiquitylation target. It was expressed in-frame upstream to the N-CAT fragment. The target was co-expressed with C-CAT-Ub, wheat E1 and Cereblon-E2 (Ubc4) fusion. […] These assays were performed in 96 and 384 well plates.
Target sequence in this assay (P15170 whole entry, the tested form may be a part): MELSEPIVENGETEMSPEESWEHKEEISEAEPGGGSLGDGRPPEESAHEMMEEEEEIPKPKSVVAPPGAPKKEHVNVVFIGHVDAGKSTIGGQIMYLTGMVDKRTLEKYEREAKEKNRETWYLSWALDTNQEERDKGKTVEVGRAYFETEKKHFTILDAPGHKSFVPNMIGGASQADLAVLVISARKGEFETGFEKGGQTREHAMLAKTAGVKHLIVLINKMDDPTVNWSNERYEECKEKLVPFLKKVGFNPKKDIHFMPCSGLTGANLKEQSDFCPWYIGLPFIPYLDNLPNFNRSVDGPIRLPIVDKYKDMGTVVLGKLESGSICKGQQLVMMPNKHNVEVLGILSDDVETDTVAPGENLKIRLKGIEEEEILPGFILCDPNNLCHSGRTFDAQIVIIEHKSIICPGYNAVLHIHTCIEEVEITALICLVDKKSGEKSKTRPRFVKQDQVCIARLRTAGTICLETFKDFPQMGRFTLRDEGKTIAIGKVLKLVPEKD
Target sequence in this assay (Q96SW2 whole entry, the tested form may be a part): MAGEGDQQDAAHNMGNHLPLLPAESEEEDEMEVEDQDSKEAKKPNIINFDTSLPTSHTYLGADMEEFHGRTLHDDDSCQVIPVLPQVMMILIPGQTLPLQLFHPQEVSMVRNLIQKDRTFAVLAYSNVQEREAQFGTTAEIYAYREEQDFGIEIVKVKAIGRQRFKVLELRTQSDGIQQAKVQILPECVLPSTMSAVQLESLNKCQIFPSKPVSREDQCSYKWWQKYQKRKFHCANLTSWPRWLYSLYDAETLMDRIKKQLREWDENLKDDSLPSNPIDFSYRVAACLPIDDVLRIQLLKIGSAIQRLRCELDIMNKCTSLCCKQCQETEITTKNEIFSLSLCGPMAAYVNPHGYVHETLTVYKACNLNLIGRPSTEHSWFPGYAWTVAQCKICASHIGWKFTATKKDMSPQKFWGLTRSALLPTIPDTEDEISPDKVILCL
Target sequence in this assay (P15731 whole entry partner, the tested form may be a part): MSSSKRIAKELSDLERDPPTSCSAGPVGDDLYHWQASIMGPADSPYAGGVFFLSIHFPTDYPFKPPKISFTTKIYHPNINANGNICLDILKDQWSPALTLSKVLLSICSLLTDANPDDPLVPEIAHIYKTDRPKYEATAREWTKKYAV

Assay [2] deals with T1, GSPT1 ubiquitylation by CRBN. As to conditions: Matyskiela et al. Nature 535, 252-257 (2016); cited from earlier work.
Target sequence in this assay (P15170 whole entry, the tested form may be a part): as the sequence (P15170 whole entry, the tested form may be a part) above
Target sequence in this assay (Q96SW2 whole entry, the tested form may be a part): as the sequence (Q96SW2 whole entry, the tested form may be a part) above
Target sequence in this assay (Q16531 whole entry partner, the tested form may be a part): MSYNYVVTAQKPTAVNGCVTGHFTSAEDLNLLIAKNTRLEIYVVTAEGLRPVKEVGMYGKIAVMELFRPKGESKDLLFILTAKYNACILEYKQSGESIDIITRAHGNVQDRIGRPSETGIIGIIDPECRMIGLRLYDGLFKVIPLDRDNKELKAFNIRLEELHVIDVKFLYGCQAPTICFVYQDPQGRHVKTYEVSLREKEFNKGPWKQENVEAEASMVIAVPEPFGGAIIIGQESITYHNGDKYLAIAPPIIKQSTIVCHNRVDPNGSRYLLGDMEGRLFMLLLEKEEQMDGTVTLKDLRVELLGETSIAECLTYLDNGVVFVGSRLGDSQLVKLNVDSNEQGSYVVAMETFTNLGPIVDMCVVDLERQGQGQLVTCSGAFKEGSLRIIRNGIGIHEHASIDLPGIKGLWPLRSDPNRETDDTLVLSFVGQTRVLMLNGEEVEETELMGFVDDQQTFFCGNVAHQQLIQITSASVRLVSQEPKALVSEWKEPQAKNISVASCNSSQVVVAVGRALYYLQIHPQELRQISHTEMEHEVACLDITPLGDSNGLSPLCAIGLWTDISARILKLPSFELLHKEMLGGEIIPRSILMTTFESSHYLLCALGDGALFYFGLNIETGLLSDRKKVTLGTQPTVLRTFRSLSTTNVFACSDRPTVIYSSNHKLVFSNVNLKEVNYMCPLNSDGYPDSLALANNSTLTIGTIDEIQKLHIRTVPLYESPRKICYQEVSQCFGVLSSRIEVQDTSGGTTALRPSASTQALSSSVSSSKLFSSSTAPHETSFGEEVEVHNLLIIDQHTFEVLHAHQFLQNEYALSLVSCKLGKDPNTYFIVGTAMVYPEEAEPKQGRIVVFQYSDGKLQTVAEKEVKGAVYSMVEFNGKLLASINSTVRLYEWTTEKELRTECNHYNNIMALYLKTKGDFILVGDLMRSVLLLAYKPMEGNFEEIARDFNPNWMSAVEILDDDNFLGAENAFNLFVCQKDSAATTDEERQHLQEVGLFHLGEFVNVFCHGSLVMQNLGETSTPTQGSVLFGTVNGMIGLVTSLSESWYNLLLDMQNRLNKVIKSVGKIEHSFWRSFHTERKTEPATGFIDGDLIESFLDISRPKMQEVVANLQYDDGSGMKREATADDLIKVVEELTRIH
For assay [3], the target named is T2, IKZF1 ubiquitylation by CRBN (Homo sapiens, UniProt Q13422+Q96SW2).
T2 construct: expressed in transfected cells; host or cells: E. coli
The assay can be described thus: split-CAT selective growth assay, IKZF1 as ubiquitylation target of CRBN. The assay is classed as cell-based. As to the method: as §1, §2, §3

Assay [4] addresses T3, CK1α ubiquitylation by CRBN (Homo sapiens, UniProt P48729+Q96SW2).
T3 construct: expressed in transfected cells; host or cells: E. coli
Put plainly: split-CAT selective growth assay, CK1a as ubiquitylation target of CRBN. Format: cell-based. The conditions noted are these: split-CAT system, Cereblon-E2 (Ubc4) fusion, chloramphenicol, 96 and 384 well plates. As to the method: as §1, §2
It was expressed in-frame upstream to the N-CAT fragment. […] These assays were performed in 96 and 384 well plates.

T2 sequence (Q13422 whole entry): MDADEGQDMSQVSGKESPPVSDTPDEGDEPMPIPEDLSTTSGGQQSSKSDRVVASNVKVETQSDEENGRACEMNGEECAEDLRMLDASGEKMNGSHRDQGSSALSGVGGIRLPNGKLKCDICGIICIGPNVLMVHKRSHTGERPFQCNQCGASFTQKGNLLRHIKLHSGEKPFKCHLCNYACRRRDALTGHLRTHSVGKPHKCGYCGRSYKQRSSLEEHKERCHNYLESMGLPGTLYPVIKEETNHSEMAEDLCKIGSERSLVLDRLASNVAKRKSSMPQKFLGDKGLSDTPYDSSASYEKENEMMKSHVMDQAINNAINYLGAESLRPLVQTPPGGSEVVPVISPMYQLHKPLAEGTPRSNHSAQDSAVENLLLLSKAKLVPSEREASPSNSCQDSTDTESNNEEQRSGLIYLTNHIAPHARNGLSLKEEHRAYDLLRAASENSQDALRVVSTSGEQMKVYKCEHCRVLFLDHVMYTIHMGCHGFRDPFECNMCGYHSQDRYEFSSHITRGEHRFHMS
T2 sequence (Q96SW2 whole entry): as the sequence (Q96SW2 whole entry, the tested form may be a part) above
T2 sequence (P15731 whole entry partner): as the sequence (P15731 whole entry partner, the tested form may be a part) above
T3 sequence (P48729 whole entry): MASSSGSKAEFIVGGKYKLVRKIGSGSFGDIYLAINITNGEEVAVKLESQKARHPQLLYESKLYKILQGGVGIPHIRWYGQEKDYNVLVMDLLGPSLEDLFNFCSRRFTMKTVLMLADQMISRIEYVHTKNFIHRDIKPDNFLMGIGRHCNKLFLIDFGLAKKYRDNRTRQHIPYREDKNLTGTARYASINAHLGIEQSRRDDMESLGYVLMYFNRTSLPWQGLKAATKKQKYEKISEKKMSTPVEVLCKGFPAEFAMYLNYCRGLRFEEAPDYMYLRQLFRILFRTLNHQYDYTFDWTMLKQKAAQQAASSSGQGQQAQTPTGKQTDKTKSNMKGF
T3 sequence (Q96SW2 whole entry): as the sequence (Q96SW2 whole entry, the tested form may be a part) above
T3 sequence (P15731 whole entry partner): as the sequence (P15731 whole entry partner, the tested form may be a part) above

On to `Cc1ccc(NC(=O)NCc2ccc3c(c2)CN(C2CCC(=O)NC2=O)C3=O)cc1Cl` (stereo not shown) [CC-885], for which the “shape of dose response curve (growth), GSPT1 target” value in assay [1] (increased concentration of drug, selective conditions with chloramphenicol) is “classical bell-shaped activity (growth) curve”. Besides, in assay [1], the “growth of E. coli that express GSPT1 (ubiquitylation dependent growth, OD600)” value is reported as “significantly promoted the growth”. Besides, the “CRBN dependent ubiquitylation of GSPT1 in the presence of the drug” value in assay [2] is reported as “undergo CRBN dependent ubiquitylation”.

`O=C1CCC(N2C(=O)c3ccccc3C2=O)C(=O)N1` (stereo not shown) [Thalidomide]: in assay [3] (increased concentration of drug, split-CAT selection system), the “shape of dose response curve (growth), IKZF1 target” value was “optimum characteristic response”. In assay [3] (split-CAT system, Cereblon-E2 (Ubc4) fusion, LB with chloramphenicol, 96 and 384 well plates), the “growth of E. coli that express IKZF1 (ubiquitylation dependent growth, OD600)” value is reported as “significantly promoted the growth”. For the same compound, the “growth of E. coli that express GSPT1 (ubiquitylation dependent growth, OD600)” value in assay [1] (listed as TLD) is listed as “not promoted”. The “growth of E. coli that express CK1a (ubiquitylation dependent growth, OD600)” value in assay [4] is reported as “significantly promoted the growth”.

The values are drawn from patent US20210356467A1, “SYSTEMS AND METHOD FOR SCREENING SMALL MOLECULES OF INTEREST” (TECHNOLOGY INNOVATION MOMENTUM FUND (ISRAEL) LIMITED …, priority 2018, published 2021).
